Here are results for seven substances from patent publication US10358431B1, “Antimicrobials from an epigenetics based fungal metabolite screening program” (University of South Florida, priority 2015, dated 2019).

The test system of data set [1] is Leishmania donovani. Put plainly: Infected macrophage model of the Leishmania donovani parasite. The format is cell-based. The following applies: for IC50: read-out: L. donovani IC50.
Data set [2] deals with macrophages.
For data set [3], the system named is MRSA. The data set can be described thus: Pure compound activity against MRSA (ESKAPE pathogens). The format is cell-based, Staphylococcus aureus. As to conditions: for IC50: pure compound.
Data set [4] deals with MRSA. The data set can be described thus: MRSA drug wash-out study / MBC99. The format is cell-based, Staphylococcus aureus.

In the case of LL-Z1272ε [Compound 6], the “L. donovani IC50 (μM)” value in data set [1] was “neither phomopsichromin D (4) nor LL-Z1272ε (6) showed any activity”. The “activity towards the macrophages” value in data set [2] is on record as “neither phomopsichromin D (4) nor LL-Z1272ε (6) showed any activity”.

Take Phomopsichromin A [Compound 1]: the IC50 was found to be 518 µM in data set [3] and 3000 nM in data set [1].

Phomopsichromin B [Compound 2]: the IC50 amounted to 515 µM in data set [3] and 1900 nM in data set [1].

Phomopsichromin C [Compound 3]: in data set [3], the “MIC against MRSA” value worked out at 58 µM and the IC50 was found to be 58 µM. The “drug wash-out study: bactericidal or not” value in data set [4] is listed as “bactericidal”. In data set [1], the IC50 is 670 nM.

Phomopsichromin D [Compound 4]: the “L. donovani IC50 (μM)” value in data set [1] was “neither phomopsichromin D (4) nor LL-Z1272ε (6) showed any activity”. For the same substance, the “activity towards the macrophages” value in data set [2] is on record as “neither phomopsichromin D (4) nor LL-Z1272ε (6) showed any activity”.

As for Phomopsichromin E [Compound 5], the IC50 in data set [3] came out at 515 µM; in data set [1], 800 nM.

As to gentamicin [reference compound], the “MRSA MBC99” value in data set [4] is 20 µM.

One may read the IC50 as the midpoint of a concentration-inhibition curve.
